Measurements published in ChEMBL document CHEMBL5154651, “Substituent effect of benzyl moiety in nitroquinoxaline small molecules upon DNA binding: Cumulative destacking of DNA nucleobases leading to histone eviction” (Eur J Med Chem, 2022).
Values belong to the compound of their own block, whether it stands above or below them. The source made the active and inactive calls. No cut-off for these calls is given here.

Assays:
GC rich DNA [1] = experiment: Displacement of Ethidium bromide from native ds-GC12 short DNA (unknown origin) by Stern-Volmer quenching plot analysis; format: nucleic-acid assay
GC rich DNA [2] = experiment: Disruption of native ds-GC12 DNA (unknown origin) base stacking interaction assessed as appearance of ICD at 320 to 330 nm by circular dichroism analysis; format: nucleic-acid assay
GC rich DNA [3] = experiment: Disruption of native ds-GC12 DNA (unknown origin) base stacking interaction assessed as decrease in positive peak intensity at 283 nm by circular dichroism analysis; format: nucleic-acid assay
DNA [4] = experiment: Induction of GC-rich pYUB12 plasmid DNA (unknown origin) unwinding assessed as complete conformational change as condensed form at DNA base-pair to compound ratio of 1:2 incubated for 16 hrs by mobility shift assay; format: nucleic-acid assay
DNA [5] = experiment: Induction of GC-rich pYUB12 plasmid DNA (unknown origin) unwinding assessed as DNA structural changes at DNA base-pair to compound ratio of 1:6 incubated for 16 hrs by mobility shift assay; format: nucleic-acid assay
GC rich DNA [6] = experiment: Disruption of native ds-GC12 DNA (unknown origin) base stacking interaction assessed as decrease in positive peak intensity at 283 nm at DNA base-pair to compound ratio of 1:4 by circular dichroism analysis; format: nucleic-acid assay
GC rich DNA [7] = experiment: Disruption of native ds-GC12 DNA (unknown origin) base stacking interaction assessed as DNA structural changes by circular dichroism analysis; format: nucleic-acid assay
Calf thymus DNA [8] = experiment: Binding affinity to calf thymus DNA assessed as change in free energy by isothermal titration calorimetry; format: nucleic-acid assay; conditions: Bos taurus
Calf thymus DNA [9] = experiment: Binding affinity to calf thymus DNA assessed as change in entropy by isothermal titration calorimetry; format: nucleic-acid assay; conditions: Bos taurus
Calf thymus DNA [10] = experiment: Binding affinity to calf thymus DNA assessed as change in enthalpy by isothermal titration calorimetry; format: nucleic-acid assay; conditions: Bos taurus
Calf thymus DNA [11] = experiment: Binding affinity to calf thymus DNA by isothermal titration calorimetry; format: nucleic-acid assay; conditions: Bos taurus
DNA [12] = experiment: Induction of GC-rich pYUB12 plasmid DNA (unknown origin) unwinding assessed as DNA structural changes at DNA base-pair to compound ratio of 1:4 incubated for 16 hrs by mobility shift assay; format: nucleic-acid assay
DNA [13] = experiment: Induction of GC-rich pYUB12 plasmid DNA (unknown origin) unwinding assessed as complete structural change with DNA condensation by measuring increase in condensed DNA band intensity at DNA base-pair to compound ratio of 1:1.5 incubated for 16 hrs by mobility shift assay; format: nucleic-acid assay
GC rich DNA [14] = experiment: Disruption of native ds-GC12 DNA (unknown origin) base stacking interaction assessed as appearance of ICD at 325 nm by circular dichroism analysis; format: nucleic-acid assay
[15] = Induction of histone eviction from single assembled nucleosome (unknown origin) assessed as reduction in nucleosome band intensity at 75 uM incubated for 4 hrs by silver staining based gel electrophoresis assay
[16] = Induction of histone eviction from single assembled nucleosome (unknown origin) assessed as maximum unwrapping of histone from nucleosome at 25 uM incubated for 4 hrs by silver staining based gel electrophoresis assay
[17] = Induction of histone eviction from single assembled nucleosome (unknown origin) assessed as unwrapping of histone from nucleosome at 15 to 20 uM incubated for 4 hrs by silver staining based gel electrophoresis assay; conditions: dose 15-20 µM
DNA [18] = experiment: Induction of GC-rich pYUB12 plasmid DNA (unknown origin) superstructure formation assessed as height of plasmid DNA at DNA base-pair to compound ratio of 1:1.5 by Atomic Force Microscopic analysis (reference value: 0.26 +/-0.08 nm); format: nucleic-acid assay
GC rich DNA [19] = experiment: Binding affinity to native ds-GC12 DNA assessed as reduction in melting temperature at DNA-base pair to compound ratio of 1:1 by differential scanning calorimetry melting based analysis; format: nucleic-acid assay
DNA [20] = experiment: Binding affinity to GC-rich pYUB12 plasmid DNA (unknown origin) assessed as induction of DNA unwinding by measuring band shifting at DNA base-pair to compound ratio of 1:1 incubated for 16 hrs by mobility shift assay; format: nucleic-acid assay
GC rich DNA [21] = experiment: Binding affinity to native ds-GC12 DNA assessed as increase in transition temperature of oligonucleotides at DNA-base pair to compound ratio of 1:4 by differential scanning calorimetry melting based analysis; format: nucleic-acid assay
GC rich DNA [22] = experiment: Binding affinity to native ds-GC12 DNA assessed as shift in melting temperature at DNA-base pair to compound ratio of 1:1 by differential scanning calorimetry melting based analysis; format: nucleic-acid assay
DNA [23] = experiment: Induction of GC-rich pYUB12 plasmid DNA (unknown origin) superstructure formation assessed as uncoiling of DNA with nodes and loops formation and DNA compaction at DNA base-pair to compound ratio of 1:0.5 by Atomic Force Microscopic analysis; format: nucleic-acid assay
DNA [24] = experiment: Induction of GC-rich pYUB12 plasmid DNA (unknown origin) superstructure formation assessed as DNA compaction with distorted structure at DNA base-pair to compound ratio of 1:1 by Atomic Force Microscopic analysis; format: nucleic-acid assay
DNA [25] = experiment: Induction of GC-rich pYUB12 plasmid DNA (unknown origin) superstructure formation assessed as DNA compaction with DNA over-supercoiling at DNA base-pair to compound ratio of 1:1.5 by Atomic Force Microscopic analysis; format: nucleic-acid assay
HCT-116 [26] = experiment: Cytotoxicity against human HCT-116 cells assessed as reduction in cell viability incubated for 24 hrs by MTT assay; format: functional, cell-based; conditions: HCT-116, 24 h
HCT-116 [27] = experiment: Induction of DNA double strand breaks in human HCT-116 cells incubated for 24 hrs by neutral comet assay; format: functional, cell-based; conditions: dose 0.5-0.75 µM, DDE = dose-dependent effect
HCT-116 [28] = experiment: Induction of DNA double strand breaks in human HCT-116 cells assessed as increase in tail length at 0.5 to 0.75 uM incubated for 24 hrs by neutral comet assay; format: functional, cell-based; conditions: dose 0.5-0.75 µM
HCT-116 [29] = experiment: Induction of DNA damage in human HCT-116 cells assessed as induction of phosphorylation of gamma-H2AX variant incubated for 4 hrs by DAPI staining based immunofluorescence analysis; format: functional, cell-based; conditions: HCT-116, 4 h
HCT-116 [30] = experiment: Induction of apoptosis in human HCT-116 cells assessed as increase in uptake of fluorescent nucleotide at 0.5 to 0.75 uM incubated for 4 hrs by TUNEL assay; format: functional, cell-based; conditions: dose 0.5-0.75 µM
HCT-116 [31] = experiment: Induction of apoptosis in human HCT-116 cells assessed as viable cells at 0.5 uM incubated for 24 hrs by Annexin V-FITC and propidium iodide staining based flow cytometry analysis (reference value: 95.3%); format: functional; conditions: read-out: Activity
HCT-116 [32] = experiment: Induction of apoptosis in human HCT-116 cells assessed as early apoptotic cells at 0.5 uM incubated for 24 hrs by Annexin V-FITC and propidium iodide staining based flow cytometry analysis (reference value: 0.6%); format: functional
HCT-116 [33] = experiment: Induction of apoptosis in human HCT-116 cells assessed as late apoptotic cells at 0.5 uM incubated for 24 hrs by Annexin V-FITC and propidium iodide staining based flow cytometry analysis (reference value: 0.3%); format: functional
HCT-116 [34] = experiment: Induction of apoptosis in human HCT-116 cells assessed as necrotic cells at 0.5 uM incubated for 24 hrs by Annexin V-FITC and propidium iodide staining based flow cytometry analysis (reference value: 3.9%); format: functional
HCT-116 [35] = experiment: Induction of apoptosis in human HCT-116 cells assessed as viable cells at 0.75 uM incubated for 24 hrs by Annexin V-FITC and propidium iodide staining based flow cytometry analysis (reference value: 95.3%); format: functional; conditions: read-out: Activity
HCT-116 [36] = experiment: Induction of apoptosis in human HCT-116 cells assessed as early apoptotic cells at 0.75 uM incubated for 24 hrs by Annexin V-FITC and propidium iodide staining based flow cytometry analysis (reference value: 0.6%); format: functional
HCT-116 [37] = experiment: Induction of apoptosis in human HCT-116 cells assessed as late apoptotic cells at 0.75 uM incubated for 24 hrs by Annexin V-FITC and propidium iodide staining based flow cytometry analysis (reference value: 0.3%); format: functional
HCT-116 [38] = experiment: Induction of apoptosis in human HCT-116 cells assessed as necrotic cells at 0.75 uM incubated for 24 hrs by Annexin V-FITC and propidium iodide staining based flow cytometry analysis (reference value: 3.9%); format: functional
HCT-116 [39] = experiment: Induction of apoptosis in human HCT-116 cells assessed as viable cells at 1 uM incubated for 24 hrs by Annexin V-FITC and propidium iodide staining based flow cytometry analysis (reference value: 95.3%); format: functional; conditions: read-out: Activity
HCT-116 [40] = experiment: Induction of apoptosis in human HCT-116 cells assessed as early apoptotic cells at 1 uM incubated for 24 hrs by Annexin V-FITC and propidium iodide staining based flow cytometry analysis (reference value: 0.6%); format: functional
HCT-116 [41] = experiment: Induction of apoptosis in human HCT-116 cells assessed as late apoptotic cells at 1 uM incubated for 24 hrs by Annexin V-FITC and propidium iodide staining based flow cytometry analysis (reference value: 0.3%); format: functional
HCT-116 [42] = experiment: Induction of apoptosis in human HCT-116 cells assessed as necrotic cells at 1 uM incubated for 24 hrs by Annexin V-FITC and propidium iodide staining based flow cytometry analysis (reference value: 3.9%); format: functional
[43] = Induction of histone eviction from single assembled nucleosome (unknown origin) assessed as reduction in nucleosome band intensity at 60 uM incubated for 4 hrs by silver staining based gel electrophoresis assay
Supercoiled DNA = experiment: Induction of GC-rich pYUB12 plasmid DNA (unknown origin) unwinding assessed as complete structural change by measuring decrease in band intensity of supercoiled DNA at DNA base-pair to compound ratio of 1:1.5 incubated for 16 hrs by mobility shift assay; format: nucleic-acid assay
GC rich DNA [44] = experiment: Disruption of native ds-GC12 DNA (unknown origin) base stacking interaction assessed as deformation of DNA native structure at DNA base-pair to compound ratio of 1:4 by circular dichroism analysis; format: nucleic-acid assay
GC rich DNA [45] = experiment: Disruption of native ds-GC12 DNA base (unknown origin) stacking interaction assessed as change in peak intensity at 283 nm at 15 to 60 uM by ellipticity plot based analysis; format: nucleic-acid assay; conditions: dose 15-60 µM
HCT-116 [46] = experiment: Induction of DNA damage in human HCT-116 cells assessed as induction of phosphorylation of gamma-H2AX variant at 0.75 uM incubated for 4 hrs by DAPI staining based immunofluorescence analysis; format: functional, cell-based

SMILES: CN(C)CCCNc1nc2cc([N+](=O)[O-])ccc2nc1NCc1ccncc1
KSV (GC rich DNA [1]): < 0.3 10^4/M

SMILES: CN(C)CCCNc1nc2cc([N+](=O)[O-])ccc2nc1NCc1ccc(Br)cc1
Activity (GC rich DNA [2]): Active
Activity (GC rich DNA [3]): Active
Activity (DNA [4]): Active
Activity (DNA [5]): Active
KSV (GC rich DNA [1]): 2.8 10^4/M

SMILES: COc1ccc(CNc2nc3ccc([N+](=O)[O-])cc3nc2NCCCN(C)C)cc1
Activity (GC rich DNA [6]): Active
Activity (DNA [5]): Active
KSV (GC rich DNA [1]): < 1 10^4/M

SMILES: CN(C)CCCNc1nc2cc([N+](=O)[O-])ccc2nc1NCc1ccc(C#N)cc1
Activity (DNA [5]): Active
KSV (GC rich DNA [1]): < 1 10^4/M

SMILES: CN(C)CCCNc1nc2cc([N+](=O)[O-])ccc2nc1NCc1ccc(C(F)(F)F)cc1
Activity (DNA [13]): Active
Activity (DNA [4]): Active
Activity (GC rich DNA [14]): Active
KSV (GC rich DNA [1]): 4.6 10^4/M
Activity [15]: Active

Continued, in another order:

Activity (GC rich DNA [6]): Active
KSV (GC rich DNA [1]): 1.26 10^4/M
SMILES: CN(C)CCCNc1nc2cc([N+](=O)[O-])ccc2nc1NCc1ccc(F)cc1

Activity (GC rich DNA [7]): Active
deltaG (Calf thymus DNA [8]): -7.2 kcal/mol
TdeltaS (Calf thymus DNA [9]): 5.34 kcal/mol
deltaH (Calf thymus DNA [10]): -1.86 kcal/mol
Ka (Calf thymus DNA [11]): 1.54 10^5/M
Activity (DNA [12]): Active
KSV (GC rich DNA [1]): 1.7 10^4/M
SMILES: Cc1ccc(CNc2nc3ccc([N+](=O)[O-])cc3nc2NCCCN(C)C)cc1

Activity [16]: Active
Activity [17]: Active
Activity (DNA [18]): 1.48 nm
Activity (GC rich DNA [3]): Active
ΔTm (GC rich DNA [19]): 2.5 °C
deltaG (Calf thymus DNA [8]): -7.87 kcal/mol
TdeltaS (Calf thymus DNA [9]): 6.12 kcal/mol
deltaH (Calf thymus DNA [10]): -1.75 kcal/mol
Ka (Calf thymus DNA [11]): 4.66 10^5/M
Activity (DNA [20]): Active
Activity (DNA [13]): Active
Activity (DNA [5]): Active
KSV (GC rich DNA [1]): 5.8 10^4/M
ΔTm (GC rich DNA [21]): 12 °C
Tm (GC rich DNA [22]): 49.5 °C
Activity (DNA [23]): Active
Activity (DNA [24]): Active
Activity (DNA [25]): Active
Activity [43]: Active
Activity (Supercoiled DNA): Active
Activity (GC rich DNA [44]): Active
Activity (GC rich DNA [45]): Active
SMILES: CN(C)CCCNc1nc2cc([N+](=O)[O-])ccc2nc1NCc1ccc(I)cc1
IC50 (HCT-116 [26]): 440 nM
Activity (HCT-116 [27]): Dde
Activity (HCT-116 [28]): Active
IC50 (HCT-116 [29]): 500 nM
Activity (HCT-116 [30]): Active
viability at 0.5 µM (HCT-116 [31]): 2.2%
Activity (HCT-116 [32]): 79.2%
Activity (HCT-116 [33]): 18.2%
Activity (HCT-116 [34]): 0.3%
viability at 0.75 µM (HCT-116 [35]): 1.7%
Activity (HCT-116 [36]): 76.8%
Activity (HCT-116 [37]): 21.1%
Activity (HCT-116 [38]): 0.4%
viability at 1 µM (HCT-116 [39]): 3%
Activity (HCT-116 [40]): 69.3%
Activity (HCT-116 [41]): 27%
Activity (HCT-116 [42]): 0.7%
Activity (HCT-116 [46]): Active
